From patent US20180093956A1, “SUBSTITUTED PHTHALAZINES” (AbbVie Inc., priority 2015, published 2018) come the findings set out here.

The target of this experiment is SUV420H1 enzyme (Homo sapiens, UniProt Q4FZB7). Description: TR-FRET SAH SUV420H1 enzyme inhibition assay. The experiment is classed as biochemical. Particulars: Histone Peptide H4(8-30)me1 and SAM, TR-FRET detection of SAH, read-out: TR-FRET SAH_SUV420H1 IC50. How it is done: Test compounds were dispensed by a Labcyte Echo in 384-well low volume assay plates with 3-fold serial dilutions from 50 μM to 0.00075 μM. 5 μL of SUV420H1 enzyme (Abbvie) at 90 nM was added to all wells except for the no enzyme control wells and incubated for 30 minutes at room temperature before 5 μL of Histone Peptide H4(8-30)me1 (Anaspec) at 5 μM and SAM at 4 μM was added to all wells. The plates were incubated in a humidified chamber overnight at room temp and then 10 μL of the detection reagent that contained RIPA buffer (50 mM Tris-HCl, pH 8.0, 150 mM sodium chloride, 1.0% Igepal CA-630 (NP-40), 0.5% sodium deoxycholate and 0.1% sodium dodecyl sulfate) (Sigma) with 2 nM of Terbium chelate anti S-adenosyl-L-homocysteine (SAH) (Abbvie) antibody and Oregon Green labeled SAH at 4 nM was added. The plates were further incubated for 4 hours at room temperature. The plates were read in a Perkin Elmer Envision using a TR-FRET protocol with Excitation set at 335 nm and Emission at 520 and 495 nm. To generate dose response curves the data is normalized to percent inhibition by setting the average of the plus and minus enzyme control wells to 0% and 100% inhibition respectively. The ICso values for the compounds are generated by fitting the normalized data with Accelrys Assay Explorer 3.3 to a sigmoidal curve model using […], Y=(100*x^n)/(K^n+x^n), where Y is the measured response, x is the compound concentration, n is the Hill Slope and K is the IC50 and the lower and higher asymptotes are constrained to 0 and 100 respectively.
Chain of SUV420H1 enzyme (Q4FZB7 whole entry): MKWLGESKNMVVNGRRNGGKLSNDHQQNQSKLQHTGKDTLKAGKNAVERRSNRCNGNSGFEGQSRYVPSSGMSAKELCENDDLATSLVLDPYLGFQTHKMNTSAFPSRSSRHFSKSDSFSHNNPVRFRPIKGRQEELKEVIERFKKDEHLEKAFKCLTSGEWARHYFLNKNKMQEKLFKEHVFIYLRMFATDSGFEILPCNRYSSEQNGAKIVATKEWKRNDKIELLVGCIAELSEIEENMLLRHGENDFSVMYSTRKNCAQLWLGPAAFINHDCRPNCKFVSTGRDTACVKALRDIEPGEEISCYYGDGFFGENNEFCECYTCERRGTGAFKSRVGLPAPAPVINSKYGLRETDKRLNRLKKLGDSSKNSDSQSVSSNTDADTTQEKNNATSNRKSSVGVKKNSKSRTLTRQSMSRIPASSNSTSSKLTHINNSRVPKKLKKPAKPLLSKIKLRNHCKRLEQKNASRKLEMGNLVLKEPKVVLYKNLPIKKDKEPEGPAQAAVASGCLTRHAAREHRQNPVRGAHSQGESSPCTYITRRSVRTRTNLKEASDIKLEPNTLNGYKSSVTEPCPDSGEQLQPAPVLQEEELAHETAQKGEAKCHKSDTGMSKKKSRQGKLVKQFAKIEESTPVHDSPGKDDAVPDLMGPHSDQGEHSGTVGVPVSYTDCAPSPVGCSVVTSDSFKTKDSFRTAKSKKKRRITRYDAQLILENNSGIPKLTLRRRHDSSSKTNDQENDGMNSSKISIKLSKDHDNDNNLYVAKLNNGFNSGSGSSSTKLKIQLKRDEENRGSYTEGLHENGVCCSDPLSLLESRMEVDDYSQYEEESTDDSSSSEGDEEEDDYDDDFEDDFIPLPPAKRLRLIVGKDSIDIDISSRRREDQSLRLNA
(In general: TR-FRET usually uses a lanthanide donor and a delayed reading to cut background.)
`O=C(Nc1ccccc1)c1nnc(NC2CCCC2)c2cc(Cl)c(Cl)cc12` [Example 53, 6,7-dichloro-4-(cyclopentylamino)-N-phenylphthalazine-1-carboxamide]: the IC50 (as a rule, the midpoint of a concentration-inhibition curve) worked out at 1340 nM.

As for `O=C(c1nnc(NC2CCCC2)c2cc(Cl)c(Cl)cc12)N1CCC(O)CC1` [Example 52, [6,7-dichloro-4-(cyclopentylamino)phthalazin-1-yl](4-hydroxypiperidin-1-yl)methanone], the IC50 amounted to 12800 nM. As for `O[C@@H]1CC[C@H](Nc2nnc(Cl)c3cc(Cl)c(Cl)cc23)C1` (racemic) [Example 13, rac-(1R,3S)-3-[(4,6,7-trichlorophthalazin-1-yl)amino]cyclopentanol], the figure is 2630 nM. For the compound `O=C(C1CCC(O)C1)N1CC=C(c2nnc(NC3CCCC3)c3cc(Cl)c(Cl)cc23)CC1` (stereo not shown) [Example 84, {4-[6,7-dichloro-4-(cyclopentylamino)phthalazin-1-yl]-3,6-dihydropyridin-1(2H)-yl}(3-hydroxycyclopentyl)methanone], the IC50 is 688 nM.

Turning to `CC(=O)N1CC=C(c2nnc(NC3CCCC3)c3cc(Cl)c(Cl)cc23)CC1` [Example 25, 1-{4-[6,7-dichloro-4-(cyclopentylamino)phthalazin-1-yl]-3,6-dihydropyridin-1(2H)-yl}ethanone], the IC50 was 1100 nM.

`CC(C)(C)OC(=O)N1CC=C(c2nnc(NC3CCCC3)c3cc(Cl)c(Cl)cc23)CC1` [Example 23, tert-butyl 4-[6,7-dichloro-4-(cyclopentylamino)phthalazin-1-yl]-3,6-dihydropyridine-1(2H)-carboxylate]: the IC50 came out at 1510 nM. Consider `Clc1cc2c(NC3CCCC3)nnc(C3=CCNCC3)c2cc1Cl` [Example 24, 6,7-dichloro-N-cyclopentyl-4-(1,2,3,6-tetrahydropyridin-4-yl)phthalazin-1-amine], for which the IC50 was 1280 nM. As for `CN1CCN(C(=O)c2nnc(NC3CCCC3)c3cc(Cl)c(Cl)cc23)CC1` [Example 49, [6,7-dichloro-4-(cyclopentylamino)phthalazin-1-yl](4-methylpiperazin-1-yl)methanone], the IC50 is 6090 nM. With `Clc1cc2c(NC3CCCC3)nnc(-c3ccc(N4CCNCC4)nc3)c2cc1Cl` [Example 27, 6,7-dichloro-N-cyclopentyl-4-[6-(piperazin-1-yl)pyridin-3-yl]phthalazin-1-amine], the IC50 is 1320 nM.

With `O=C(Cn1cc(-c2nnc(NC3CCCC3)c3cc(Cl)c(Cl)cc23)cn1)N1CCCC1` [Example 58, 2-{4-[6,7-dichloro-4-(cyclopentylamino)phthalazin-1-yl]-1H-pyrazol-1-yl}-1-(pyrrolidin-1-yl)ethanone], the IC50 turned out to be 6010 nM.

Turning to `Fc1cc(-c2nnc(NC3CCCC3)c3cc(Cl)c(Cl)cc23)ccn1` [Example 12, 6,7-dichloro-N-cyclopentyl-4-(2-fluoropyridin-4-yl)phthalazin-1-amine], the IC50 amounted to 827 nM. Consider `O=C(Cn1cc(-c2nnc(NC3CCCC3)c3cc(Cl)c(Cl)cc23)cn1)N1CCC(O)C1` (stereo not shown) [Example 59, 2-{4-[6,7-dichloro-4-(cyclopentylamino)phthalazin-1-yl]-1H-pyrazol-1-yl}-1-(3-hydroxypyrrolidin-1-yl)ethanone], for which the IC50 stood at 766 nM.

As for `CS(=O)(=O)N1CC=C(c2nnc(NC3CCCC3)c3cc(Cl)c(Cl)cc23)CC1` [Example 67, 6,7-dichloro-N-cyclopentyl-4-[1-(methylsulfonyl)-1,2,3,6-tetrahydropyridin-4-yl]phthalazin-1-amine], the IC50 came to 448 nM. Take `OC1CCN(c2ccc(-c3nnc(NC4CCCC4)c4cc(Cl)c(Cl)cc34)cn2)CC1` [Example 28, 1-{5-[6,7-dichloro-4-(cyclopentylamino)phthalazin-1-yl]pyridin-2-yl}piperidin-4-ol]: the IC50 was 572 nM. Regarding `O=C(c1nnc(NC2CCCC2)c2cc(Cl)c(Cl)cc12)N1CCOCC1` [Example 51, [6,7-dichloro-4-(cyclopentylamino)phthalazin-1-yl](morpholin-4-yl)methanone], the IC50 came out at 8210 nM. Take `O=S(=O)(C1CC1)N1CC=C(c2nnc(NC3CCCC3)c3cc(Cl)c(Cl)cc23)CC1` [Example 68, 6,7-dichloro-N-cyclopentyl-4-[1-(cyclopropylsulfonyl)-1,2,3,6-tetrahydropyridin-4-yl]phthalazin-1-amine]: the IC50 came out at 453 nM.

`OC1CCN(c2ccc(-c3nnc(NC4CCCC4)c4cc(Cl)c(Cl)cc34)cn2)C1` (stereo not shown) [Example 34, 1-{5-[6,7-dichloro-4-(cyclopentylamino)phthalazin-1-yl]pyridin-2-yl}pyrrolidin-3-ol]: the IC50 came to 2730 nM.

`Clc1cc2c(NC3CCCC3)nnc(N3CCOCC3)c2cc1Cl` [Example 10, 6,7-dichloro-N-cyclopentyl-4-(morpholin-4-yl)phthalazin-1-amine]: the IC50 came out at 48400 nM. As for `O=C1CCC(C(=O)N2CC=C(c3nnc(NC4CCCC4)c4cc(Cl)c(Cl)cc34)CC2)C1` (stereo not shown) [Example 81, 3-({4-[6,7-dichloro-4-(cyclopentylamino)phthalazin-1-yl]-3,6-dihydropyridin-1(2H)-yl}carbonyl)cyclopentanone], the figure is 2230 nM; as for `Clc1cc2c(NC3CCCC3)nnc(-c3ccc(N4CCCC4)nc3)c2cc1Cl` [Example 31, 6,7-dichloro-N-cyclopentyl-4-[6-(pyrrolidin-1-yl)pyridin-3-yl]phthalazin-1-amine], 2740 nM. Turning to `CCNC(=O)c1nnc(NC2CCCC2)c2cc(Cl)c(Cl)cc12` [Example 45, 6,7-dichloro-4-(cyclopentylamino)-N-ethylphthalazine-1-carboxamide], the IC50 came to 197 nM.

Take `O=S(=O)(c1ccccc1)N1CC=C(c2nnc(NC3CCCC3)c3cc(Cl)c(Cl)cc23)CC1` [Example 69, 6,7-dichloro-N-cyclopentyl-4-[1-(phenylsulfonyl)-1,2,3,6-tetrahydropyridin-4-yl]phthalazin-1-amine]: the IC50 was determined as 2350 nM.

As to `NC(=O)CC(=O)N1CC=C(c2nnc(NC3CCCC3)c3cc(Cl)c(Cl)cc23)CC1` [Example 83, 3-{4-[6,7-dichloro-4-(cyclopentylamino)phthalazin-1-yl]-3,6-dihydropyridin-1(2H)-yl}-3-oxopropanamide], the IC50 stood at 816 nM.

`CN1CCN(c2cc(-c3nnc(NC4CCCC4)c4cc(Cl)c(Cl)cc34)ccn2)CC1` [Example 16, 6,7-dichloro-N-cyclopentyl-4-[2-(4-methylpiperazin-1-yl)pyridin-4-yl]phthalazin-1-amine]: the IC50 was found to be 8350 nM. Regarding `Clc1cc2c(NC3CCCC3)nnc(-c3ccnc(N4CCCC4)c3)c2cc1Cl` [Example 15, 6,7-dichloro-N-cyclopentyl-4-[2-(pyrrolidin-1-yl)pyridin-4-yl]phthalazin-1-amine], the IC50 is more than 50000 nM. As to “6,7-dichloro-4-(cyclopentylamino)phthalazine-1-carboxylic acid [Example 38]”, the IC50 was 8680 nM. As for `Clc1cc2c(NC3CCCC3)nnc(-c3ccc(N4CCOCC4)nc3)c2cc1Cl` [Example 22, 6,7-dichloro-N-cyclopentyl-4-[6-(morpholin-4-yl)pyridin-3-yl]phthalazin-1-amine], the figure is 1010 nM. As for `O=C(Cn1cc(-c2nnc(NC3CCCC3)c3cc(Cl)c(Cl)cc23)cn1)N1CCOCC1` [Example 65, 2-{4-[6,7-dichloro-4-(cyclopentylamino)phthalazin-1-yl]-1H-pyrazol-1-yl}-1-(morpholin-4-yl)ethanone], the figure is 551 nM.

`CN(CCO)C(=O)c1nnc(NC2CCCC2)c2cc(Cl)c(Cl)cc12` [Example 46, 6,7-dichloro-4-(cyclopentylamino)-N-(2-hydroxyethyl)-N-methylphthalazine-1-carboxamide]: the IC50 was 5460 nM. As for `Clc1cc2c(NC3CCCC3)nnc(-c3ccc(CN4CCOCC4)cc3)c2cc1Cl` [Example 14, 6,7-dichloro-N-cyclopentyl-4-[4-(morpholin-4-ylmethyl)phenyl]phthalazin-1-amine], the figure is 19100 nM; as for `O=C(O)Cn1cc(-c2nnc(NC3CCCC3)c3cc(Cl)c(Cl)cc23)cn1` [Example 44, {4-[6,7-dichloro-4-(cyclopentylamino)phthalazin-1-yl]-1H-pyrazol-1-yl}acetic acid], 255 nM; as for `O=C(c1nnc(NC2CCCC2)c2cc(Cl)c(Cl)cc12)N1CCS(=O)(=O)CC1` [Example 50, [6,7-dichloro-4-(cyclopentylamino)phthalazin-1-yl](1,1-dioxidothiomorpholin-4-yl)methanone], 5060 nM. As for `CN(CCO)c1cc(-c2nnc(NC3CCCC3)c3cc(Cl)c(Cl)cc23)ccn1` [Example 35, 2-[{4-[6,7-dichloro-4-(cyclopentylamino)phthalazin-1-yl]pyridin-2-yl}(methyl)amino]ethanol], the figure is 808 nM; as for `O=C(Cn1cc(-c2nnc(NC3CCCC3)c3cc(Cl)c(Cl)cc23)cn1)N1CCS(=O)(=O)CC1` [Example 63, 2-{4-[6,7-dichloro-4-(cyclopentylamino)phthalazin-1-yl]-1H-pyrazol-1-yl}-1-(1,1-dioxidothiomorpholin-4-yl)ethanone], 208 nM.
